Data published in patent US20220202799A1, “PHARMACEUTICAL FORMULATIONS CONTAINING P2Y14 ANTAGONISTS” (priority 2019, published 2022).
“And” between values parts separate entries of the source, which are not always exact repeats. Equal values may be shown once. Read-outs that look alike come from different tables or passages of the source.

What was measured:
[1] = Plasma concentrations during 24-hour continuous intravenous infusion; assay type: in vivo, Sprague-Dawley rats; settings: male, Sprague-Dawley, rat, plasma, iv, male Sprague-Dawley rats
Description: The safety and pharmacokinetics of PPTN (KB-1801) in rats receiving continuous intravenous injections of SBECD-containing solutions were analyzed. Three cohorts of six male and six female rats each were given continuous intravenous infusion of PPTN (KB-1801) at 10 mg/kg/day, 30 mg/kg/day or 100 mg/kg/day in a dosing solution containing PPTN at 0.25 mg/mL, 0.75 mg/mL or 2.5 mg/mL and SBECD at about 3.8%. Dosing volume was 40 mIkg/day. [table]

[2] = Urine concentrations, 24-hour continuous intravenous infusion; assay type: in vivo, Sprague-Dawley rats; settings: for Total amount in urine: all intervals; for Total amount in urine / Amount in urine: individual animals
Description: The safety and pharmacokinetics of PPTN (KB-1801) in rats receiving continuous intravenous injections of SBECD-containing solutions were analyzed. Three cohorts of six male and six female rats each were given continuous intravenous infusion of PPTN (KB-1801) at 10 mg/kg/day, 30 mg/kg/day or 100 mg/kg/day in a dosing solution containing PPTN at 0.25 mg/mL, 0.75 mg/mL or 2.5 mg/mL and SBECD at about 3.8%. Dosing volume was 40 mIkg/day.

[3] = Loss of PPTN due to adherence to surfaces of vessels; assay type: physicochemical; settings: 200 ng/ml PPTN, no solubilizing agent; Control 48 h, glass scintillation vial
[4] = 10 mg/kg, 24-hour intravenous infusion at 10 mg/kg, read-out: Plasma concentration, individual animal
[5] = 10 mg/kg, 24-hour intravenous infusion at 10 mg/kg, read-out: Plasma concentration, Mean
[6] = 30 mg/kg, 24-hour intravenous infusion at 30 mg/kg, read-out: Plasma concentration, Mean
[7] = 30 mg/kg, 24-hour intravenous infusion at 30 mg/kg, read-out: Plasma concentration, individual animal
[8] = 100 mg/kg, 24-hour intravenous infusion at 100 mg/kg, read-out: Plasma concentration, Mean
[9] = 100 mg/kg, 24-hour intravenous infusion at 100 mg/kg, read-out: Plasma concentration, individual animal

O=C(O)c1cc(-c2ccc(C3CCNCC3)cc2)c2ccc(-c3ccc(C(F)(F)F)cc3)cc2c1 [KB-1801, 4-[4-(piperidin-4-yl)phenyl]-7-[4-(trifluoromethyl)phenyl]-2-naphthoic acid]
concentration at 1 h [1, 4]: 216 ng/mL | concentration at 2 h [1, 5]: 276 ng/mL | concentration at 2 h [1, 4]: 327 ng/mL | concentration at 4 h [1, 5]: 378 ng/mL | concentration at 6 h [1, 5]: 417 ng/mL | concentration at 6 h [1, 4]: 508 ng/mL | concentration at 8 h [1, 5]: 416 ng/mL | concentration at 8 h [1, 4]: 430 ng/mL | concentration at 24 h [1, 5]: 703 ng/mL | concentration at 1 h [1, 6]: 1020 ng/mL | concentration at 2 h [1, 6]: 1100 ng/mL | concentration at 4 h [1, 6]: 1320 ng/mL | concentration at 4 h [1, 7]: 1460 ng/mL | concentration at 6 h [1, 6]: 1470 ng/mL | concentration at 6 h [1, 7]: 1170 ng/mL | concentration at 8 h [1, 6]: 1500 ng/mL | concentration at 8 h [1, 7]: 1450 ng/mL | concentration at 24 h [1, 6]: 2830 ng/mL | concentration at 24 h [1, 7]: 2880 ng/mL | concentration at 1 h [1, 8]: 2120 ng/mL | concentration at 1 h [1, 9]: 1530 ng/mL | concentration at 2 h [1, 8]: 2760 ng/mL | concentration at 4 h [1, 8]: 3940 ng/mL | concentration at 4 h [1, 9]: 3560 ng/mL | concentration at 6 h [1, 8]: 6660 ng/mL | concentration at 8 h [1, 8]: 5770 ng/mL | concentration at 8 h [1, 9]: 6520 ng/mL | concentration at 24 h [1, 8]: 8740 ng/mL | concentration at 24 h [1, 9]: 10700 ng/mL | Total amount in urine ([2]; 24-hour IV infusion 10 mg/kg, female rats): 6.29 µg and 1.92 µg and 6.27 µg and 24.6 µg and 20.3 µg and 2.33 µg | Amount in urine ([2]; 24-hour IV infusion 10 mg/kg, female rats, interval 0-4 h): 0.16 µg and 0.14 µg and 0.81 µg and 4.98 µg and 2.11 µg | Amount in urine ([2]; 24-hour IV infusion 10 mg/kg, female rats, interval 4-9 h): 5.74 µg and 1.32 µg and 11.2 µg and 0.05 µg and 0.23 µg | Amount in urine ([2]; 24-hour IV infusion 10 mg/kg, female rats, interval 9-24 h): 0.39 µg and 0.46 µg and 5.46 µg and 13.4 µg and 15.3 µg | Total amount in urine ([2]; 24-hour IV infusion 30 mg/kg, female rats): 22.6 µg and 2.00 µg and 6.83 µg and 40.2 µg and 30.9 µg and 57.2 µg | Amount in urine ([2]; 24-hour IV infusion 30 mg/kg, female rats, interval 0-4 h): 8.76 µg and 2.00 µg and 0.003 µg and 7.08 µg and 0.71 µg | Amount in urine ([2]; 24-hour IV infusion 30 mg/kg, female rats, interval 4-9 h): 9.17 µg and 16.2 µg and 22.6 µg and 29.6 µg | Amount in urine ([2]; 24-hour IV infusion 30 mg/kg, female rats, interval 9-24 h): 27.6 µg and 4.65 µg and 6.83 µg and 17.0 µg and 7.56 µg | Total amount in urine ([2]; 24-hour IV infusion 30 mg/kg, male rats): 61.7 µg and 63.3 µg and 9.64 µg and 18.1 µg and 243.3 µg and 31.4 µg | Amount in urine ([2]; 24-hour IV infusion 30 mg/kg, male rats, interval 0-4 h): 0.01 μg (3×) and 2.03 μg and 0.001 μg and 33.9 μg | Amount in urine ([2]; 24-hour IV infusion 30 mg/kg, male rats, interval 4-9 h): 26.0 µg and 43.8 µg and 5.65 µg and 0.003 µg and 11.8 µg and 21.8 µg | Amount in urine ([2]; 24-hour IV infusion 30 mg/kg, male rats, interval 9-24 h): 9.64 µg and 35.7 µg and 17.4 µg and 3.98 µg and 18.1 µg and 197.6 µg | Total amount in urine ([2]; 24-hour IV infusion 100 mg/kg, female rats): 45.8 µg and 48.8 µg and 64.7 µg and 43.0 µg and 149.9 µg and 171.6 µg | Amount in urine ([2]; 24-hour IV infusion 100 mg/kg, female rats, interval 0-4 h): 0.02 µg and 0.01 µg and 9.75 µg and 3.61 µg and 25.6 µg and 10.7 µg | Amount in urine ([2]; 24-hour IV infusion 100 mg/kg, female rats, interval 4-9 h): 1.83 µg and 19.3 µg and 5.96 µg and 0.01 µg and 27.4 µg | Amount in urine ([2]; 24-hour IV infusion 100 mg/kg, female rats, interval 9-24 h): 133.5 µg and 43.9 µg and 48.8 µg and 35.7 µg and 33.4 µg and 124.3 µg | Total amount in urine ([2]; 24-hour IV infusion 100 mg/kg, male rats): 239.6 µg and 82.2 µg and 0.001 µg and 186.8 µg and 228.4 µg and 526.5 µg | Amount in urine ([2]; 24-hour IV infusion 100 mg/kg, male rats, interval 0-4 h): 0.12 µg and 40.8 µg and 51.3 µg | Amount in urine ([2]; 24-hour IV infusion 100 mg/kg, male rats, interval 4-9 h): 33.6 µg and 26.0 µg and 0.001 µg and 24.1 µg and 32.1 µg and 71.5 µg | Amount in urine ([2]; 24-hour IV infusion 100 mg/kg, male rats, interval 9-24 h): 403.7 µg and 206.0 µg and 56.1 µg and 162.6 µg and 155.6 µg | Total amount in urine, individual animal ([2]; male Sprague-Dawley rats, 24-hour intravenous infusion at 10 mg/kg, 0-24 h, 10 mg/kg): 45.5 µg and 49.8 µg and 14.8 µg and 67.4 µg and 19.0 µg and 3.25 µg | Amount in urine, individual animal ([2]; male Sprague-Dawley rats, 24-hour intravenous infusion at 10 mg/kg, time interval 0-4 h, 10 mg/kg): 5.36 µg and 2.11 µg and 2.02 µg and 11.1 µg and 0.03 µg | Amount in urine, individual animal ([2]; male Sprague-Dawley rats, 24-hour intravenous infusion at 10 mg/kg, time interval 4-9 h, 10 mg/kg): 4.47 µg and 0.35 µg and 6.15 µg and 0.52 µg | Amount in urine, individual animal ([2]; male Sprague-Dawley rats, 24-hour intravenous infusion at 10 mg/kg, time interval 9-24 h, 10 mg/kg): 3.23 µg and 35.7 µg and 47.3 µg and 6.64 µg and 56.3 µg and 18.5 µg | Urine concentration compared with plasma ([2]; rats, continuous intravenous infusion for 24 or 72 hours): generally in excess of plasma concentrations | % recovery vs. standard [3]: 26%
